According to PubChem BioAssay (NCI):
Values joined by “and” are separate entries in the source; they are usually repeats but may differ in a detail not shown here. Identical values can stand only once.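 48-hour exposure; five concentrations; linearly interpolated endpoints. At the GI50, growth is halved. TGI denotes the concentration required for complete inhibition of growth.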

What was measured:
Assay in all cases: NCI anticancer screen, dose series, 48 h
UACC-257 melanoma = tested on: UACC-257 melanoma
HCT-116 colon = tested on: HCT-116 colon
ACHN renal = tested on: ACHN renal
HT29 colon = tested on: HT29 colon
HS 578T breast = tested on: HS 578T breast
U251 CNS = tested on: U251 CNS
MDA-MB-231 breast = tested on: MDA-MB-231 breast
MALME-3M melanoma = tested on: MALME-3M melanoma
SK-OV-3 ovarian = tested on: SK-OV-3 ovarian
HL-60(TB) leukemia = tested on: HL-60(TB) leukemia

Row | SMILES | GI50 (UACC-257 melanoma) | TGI (UACC-257 melanoma) | GI50 (HCT-116 colon) | TGI (HCT-116 colon) | GI50 (ACHN renal) | TGI (ACHN renal) | GI50 (HT29 colon) | TGI (HT29 colon) | GI50 (HS 578T breast) | TGI (HS 578T breast) | GI50 (U251 CNS) | TGI (U251 CNS) | GI50 (MDA-MB-231 breast) | TGI (MDA-MB-231 breast) | GI50 (MALME-3M melanoma) | TGI (MALME-3M melanoma) | GI50 (SK-OV-3 ovarian) | TGI (SK-OV-3 ovarian) | GI50 (HL-60(TB) leukemia) | TGI (HL-60(TB) leukemia)
1 | CCS(=O)(=O)Nc1cccc(Nc2c3cccc(C)c3nc3c(C)cccc23)c1OC | 2.46 µM | 38.5 µM | 0.793 µM | > 51.9 µM | 0.326 µM | 16.5 µM | 1.93 µM | 10.5 µM | 5.69 µM | 44.8 µM | 0.404 µM | 19.8 µM | 5.2 µM | 41.4 µM | 0.901 µM | > 47.4 µM | 1.61 µM | 29.7 µM | 0.25 µM | 
2 | CCOC(=O)[C@@H](C)C[C@H](Cc1ccccc1)NC(=O)c1csc([C@@H](C[C@H](C(C)C)N(C)C(=O)[C@H](CC)NC(=O)[C@H]2CCCCN2C)OC(C)=O)n1 | > 16.7 µM | > 16.7 µM | < 0.00167 µM | 1.68 µM | 0.00196 µM | > 16.7 µM | < 0.00167 µM | > 16.7 µM | 0.00405 µM | > 15.5 µM | 0.0031 µM | > 16.7 µM | 0.00323 µM | 0.308 µM | < 0.00167 µM | > 16.7 µM | < 0.00167 µM | > 16.7 µM | < 0.00167 µM | 0.0114 µM
3 | O=C(NCc1ccco1)c1ccc(NC2=C(Cl)C(=O)N(Cc3ccccc3)C2=O)cc1 | 28.9 µM | 80.8 µM | 10.2 µM | 21.8 µM |  |  | 35 µM | > 100 µM | 43.3 µM | > 100 µM | 18.3 µM | 44.9 µM | 24 µM | 62.1 µM |  |  | 53.2 µM | > 100 µM | 17.4 µM | 33.8 µM
4 | CC[C@@]1(O)C(=O)OCc2c1cc1n(c2=O)Cc2c-1nc1cc3c(cc1c2C)OCO3 | 0.0159 µM | 0.278 µM | 0.0181 µM | 15.1 µM | < 0.0001 µM | 0.0601 µM | < 0.0001 µM | > 100 µM | 37.4 µM | > 100 µM | < 0.0001 µM |  | 0.0147 µM | > 100 µM | 0.000457 µM | 3.92 µM | < 0.0001 µM | 0.25 µM and 0.331 µM | < 0.0001 µM | 
5 | O=C(NCc1ccncc1)C12CC3CC(C1)CC(c1ccc(Cl)cc1)(C3)C2 | 12.4 µM | 25.1 µM | 9.4 µM | 22.3 µM | 12.5 µM | 25 µM | 11.9 µM | 25.4 µM | 12.9 µM | 31.7 µM | 14.2 µM | 28.6 µM | 12 µM | 26.2 µM | 13.3 µM | 27.4 µM | 12.5 µM | 25.2 µM | 5.58 µM | 27.1 µM
6 | CC/C(=C(/c1ccc(O)cc1)c1ccc(OCCN2CCCCC2)cc1)c1ccc(OC)cc1 |  |  | 1.15 µM | 2.51 µM | 1.94 µM | 4.15 µM | 1.21 µM | 3.67 µM | 2.09 µM | 5.52 µM | 1.85 µM | 4.22 µM | 1.61 µM | 3.84 µM | 1.42 µM | 2.98 µM | 14 µM | 27.3 µM | 1.99 µM | 4.1 µM
7 | N#CC1=C(N)NC(=S)NC12Nc1ccccc1N2 | > 100 µM | > 100 µM | 50 µM | > 100 µM |  |  |  |  | 68.9 µM | > 100 µM | > 100 µM | > 100 µM | > 100 µM | > 100 µM | 13.5 µM | 69.2 µM | 61 µM | > 100 µM | 20.8 µM | > 100 µM
8 | CSc1ncnc2c1ncn2C1OC(CO)C(O)OC1O (stereo unspecified) |  | 15.2 µM |  | 21.6 µM |  | > 100 µM |  | > 37.4 µM |  | > 100 µM |  | 30.1 µM |  | 14.6 µM |  | 70.5 µM |  | > 100 µM |  | 11.7 µM
9 | CCOC(=O)C(C)(C)C(O)C(C)C (stereo unspecified) |  | > 100 µM |  | > 100 µM |  | > 100 µM |  | > 100 µM |  | > 100 µM |  | > 100 µM |  | > 100 µM |  | > 100 µM |  | > 100 µM |  | > 100 µM
10 | Cc1ccc(-c2nc(N3CCCNCC3)c3oc(-c4ccccc4)nc3n2)cc1 | 1.96 µM | 3.48 µM |  |  | 1.79 µM | 3.22 µM | 1.69 µM | 3.15 µM | 1.94 µM | 4.22 µM | 1.78 µM | 3.17 µM | 1.77 µM | 3.27 µM | 1.93 µM | 3.48 µM | 1.89 µM | 3.31 µM | 1.35 µM | 3.17 µM
11 | CCc1cc2c(cc1N1CCC(N3CCOCC3)CC1)C(C)(C)c1[nH]c3cc(C#N)ccc3c1C2=O | 2.3 µM and 3.2 µM | 21.1 µM and 25.9 µM and > 10 µM | 1.76 µM and 1.79 µM and 3.1 µM | 3.85 µM and 3.6 µM and > 10 µM | 1.92 µM and 1.54 µM and 1.41 µM | 4.54 µM and 3.35 µM and 4.67 µM | 0.758 µM and 0.853 µM and 1.51 µM | 2.54 µM and 3.42 µM and > 10 µM | 1.21 µM and 1.51 µM and 0.53 µM | 4.88 µM and 5.56 µM and 4.22 µM | 1.33 µM and 1.43 µM and 1.4 µM | 2.76 µM and 3.28 µM and 2.96 µM | 1.53 µM and 1.71 µM and 2.11 µM | 5.21 µM and 4.65 µM and 6.37 µM | 1.41 µM and 1.4 µM and 2.3 µM | 5.62 µM and 5.27 µM and > 10 µM | 1.64 µM and 1.87 µM and 2.84 µM | 3.4 µM and 3.72 µM and 8.64 µM | 1.7 µM and 1.02 µM and 0.443 µM | > 100 µM
12 | NC1=NCCN1CC(=O)O | > 10000 µM | > 10000 µM | > 10000 µM | > 10000 µM | > 10000 µM | > 10000 µM | > 10000 µM | > 10000 µM | > 1000 µM | > 10000 µM | > 10000 µM | > 10000 µM | > 10000 µM | > 10000 µM |  | > 1000 µM | > 10000 µM | > 10000 µM |  | > 1000 µM
13 | Nc1c(C(=O)c2ccc(CCCN3CCOCC3)cc2)cnn1-c1ccc(F)cc1 | 24.3 µM | > 25 µM | > 25 µM | > 25 µM | > 25 µM | > 25 µM | > 25 µM | > 25 µM | > 25 µM | > 25 µM | > 25 µM | > 25 µM | > 25 µM | > 25 µM | > 25 µM | > 25 µM | > 25 µM | > 25 µM | > 25 µM | > 25 µM
14 | CCN(CC)CCCC(C)N=c1cc(Nc2cc(=NC(C)CCCN(CC)CC)c3cc(OC)ccc3o2)oc2ccc(OC)cc12 (stereo unspecified) | 0.872 µM | 1.67 µM | 0.683 µM | 1.81 µM |  |  | 0.588 µM | 1.97 µM | 3.33 µM | 14.8 µM | 1.15 µM | 3.4 µM | 0.666 µM | 1.88 µM | 0.937 µM | 1.74 µM | 1.31 µM | 4.13 µM | 2.66 µM | 13.2 µM
